Measured values from patent publication US11484591B2, “Chemoprevention using controlled-release formulations of anti-interleukin 6 agents, synthetic vitamin A analogues or metabolites, and estradiol metabolites” (OHIO STATE INNOVATION FOUNDATION, priority 2016, dated 2022).
Entries after “also recorded” stand apart in the source; their conditions may differ.

Assays:
JSCC1 cells = test: Tumorsphere formation and retention of proliferative capacity; type: cell-based, human
Description: JSCC1 cells were seeded at density of 5×10^5 cells in Advanced DMEM+5% FBS+1× GlutaMAX Supplement in Ultra-Low Attachment surface T-25 flasks with DMSO control (0.05%) and 5 μM 4-HPR treatment. Cell suspension cultures were treated for 3 days with fresh treatment every 24 h. While control cultures formed tumorspheres by 24 h, 4-HPR treated cellular interactions were limited to small cell aggregates. (Image scale at 100×.)
Following the treatment described in FIG. 4A above, the JSCC1 control and 4-HPR treated cells were returned to standard tissue culture flasks for seven days in 4-HPR free complete medium (Advanced DMEM+5% FBS+1× GlutaMAX Supplement). […] (Image scale 100×.)
5×10^5 JSCC1 cells (tumorsphere-formation competent unlike JSCC2 and JSCC3 cells) were plated in complete medium with either vehicle control (0.01% DMSO) or 5 μM 4-HPR in Corning Ultra-Low attachment tissue culture flasks (Sigma-Aldrich, St. Louis, Mo.) Suspension cultures received fresh medium and treatment q d for 7 days, with daily images capture via the Nikon DS-Ri+NIS Element. After 7 days, cells and medium were harvested, centrifuged, and cells replated in standard culture flasks containing complete medium. Images were obtained daily and cells harvested after 7 days in culture. Cell number (hemocytometer counts) and viability (trypan blue exclusion) were obtained.

STAT3 = STAT3 cytosolic phosphorylation and nuclear translocation, immunoblots of OSCC cell lines; type: cell-based, human
Description: FIGS. 2A, 2B, and 2C show the treatment effects of fenretinide (4-HPR, 5 μM), 2-methoxyestradiol (2-ME, 2.5 μM) and the STAT3 inhibitor LY5 (0.5 μM) on STAT3 phosphorylation and nuclear translocation. (A) (JSCC1 cells) (B) (JSCC2 cells) and (C) (JSCC3 cells) were evaluated. Cytosolic and nuclear proteins were harvested from sera deprived JSCC1 and JSCC2 cell lines following 24 h of treatment (5 μM 4-HPR, 2.5 μM 2-ME, or 0.5 μM LY5) or vehicle (0.1% DMSO) control. […] As the JSCC3 cells don't constitutively express pSTAT3, these cells underwent 24 h stimulation in base medium supplemented with 10 ng/mL of IL-6 or 5 ng/mL of TGF-α, with or without 4-HPE, 2-ME or LY5 treatment, followed by harvest. […] (n=3, p<0.05, Wilcoxon matched pairs signed rank test).
Dosing levels were determined by concurrent proliferation and viability studies in conjunction with literature values. The cells in every treatment group were then stimulated for 20 minutes with: vehicle (1 μl ddH2O), 50 ng/ml EGF, 50 ng/ml VEGF, or 50 ng/ml EGF+50 ng/ml VEGF, followed by standard immunoblotting and data normalization relative to GAPDH. […] Immunoblot images were captured (Li-Cor Odyssey imager) and analyzed (Li-Cor Image Studio, Version 4.0) to depict effects on treatment on phosphorylation relative to respective levels of GAPDH. […]

[1] = JSCC1 cells pretreated with 5 μM, 7 days in 4-HPR free complete medium

Structure (SMILES): CC1=C(/C=C/C(C)=C/C=C/C(C)=C/C(=O)Nc2ccc(O)cc2)C(C)(C)CCC1 [4-HPR, 4-hydroxy(phenyl)retinamide]
- reattachment and viability after re-plating in standard flasks (JSCC1 cells; [1]): failed to reattach; also recorded: failed to reattach and were uniformly non-vital
- trypan blue uptake after re-plating (JSCC1 cells; [1]): 100%
- tumorsphere formation (JSCC1 cells; JSCC1 cells, 5 μM, low attachment flasks): inhibits tumorsphere formation
- anoikis in tumorsphere-competent cells (JSCC1 cells; discussion): induced anoikis
- constitutive STAT3 phosphorylation and pSTAT3 nuclear translocation (STAT3; JSCC1 and JSCC2 cells, 5 μM, 24 h): suppressed; also recorded: significantly reduced
- suppression of STAT3 activation and nuclear translocation relative to STAT3 inhibitor LY5 (STAT3; JSCC1 cells, 5 μM 4-HPR vs 0.5 μM LY5): appreciably more effectively
